Laboratory results published in BindingDB's records for doi:10.1021/jm7014149 (Vu University Amsterdam, 2008).

Legend:
Conditions in all cases: pH 7.4; 25 °C
[1] = target: T1, Histamine H3 receptor (Homo sapiens, UniProt Q9Y5N1); assay: Radioligand Binding Assay and Functional [35S]GTP-gamma-S Binding Assay
Experimental: Ligand displacement assays were performed on CHO cells membranes expressing hH3R. Retained radioactivity was determined by liquid scintillation counting. Nonspecific binding was determined in the presence of 1 uM thioperamide. The Ki values were calculated based on an experimentally determined appropriate Kd value according to Cheng and Prusoff. EC50 is a measure of functional property of compound on [35S]GTP-gamma-S binding to membranes expressing H3R receptors.

[2] = target: T1, Histamine H3 receptor; assay: H3R Radioligand Binding Assay
[3] = target: Histamine H4 receptor (Homo sapiens, UniProt Q9H3N8); assay: H4R Radioligand Binding Assay
Chain of Histamine H4 receptor (Q9H3N8 whole entry): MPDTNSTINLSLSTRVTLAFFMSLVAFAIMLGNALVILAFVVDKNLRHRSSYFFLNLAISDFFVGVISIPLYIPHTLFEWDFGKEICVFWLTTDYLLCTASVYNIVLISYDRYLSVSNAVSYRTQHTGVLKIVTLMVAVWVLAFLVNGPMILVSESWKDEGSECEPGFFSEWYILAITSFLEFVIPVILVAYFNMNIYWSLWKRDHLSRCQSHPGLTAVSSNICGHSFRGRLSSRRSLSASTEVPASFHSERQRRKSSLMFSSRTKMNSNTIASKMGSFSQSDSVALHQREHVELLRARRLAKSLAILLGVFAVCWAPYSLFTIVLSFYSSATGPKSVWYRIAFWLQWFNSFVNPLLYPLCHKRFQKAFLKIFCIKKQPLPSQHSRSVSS
Experimental: Ligand displacement assays were performed on CHO cells membranes expressing hH4R. Retained radioactivity was determined by liquid scintillation counting. Nonspecific binding was determined in the presence of 10 uM histamine. The Ki values were calculated based on an experimentally determined appropriate Kd value according to Cheng and Prusoff.

T1 sequence (Q9Y5N1 whole entry): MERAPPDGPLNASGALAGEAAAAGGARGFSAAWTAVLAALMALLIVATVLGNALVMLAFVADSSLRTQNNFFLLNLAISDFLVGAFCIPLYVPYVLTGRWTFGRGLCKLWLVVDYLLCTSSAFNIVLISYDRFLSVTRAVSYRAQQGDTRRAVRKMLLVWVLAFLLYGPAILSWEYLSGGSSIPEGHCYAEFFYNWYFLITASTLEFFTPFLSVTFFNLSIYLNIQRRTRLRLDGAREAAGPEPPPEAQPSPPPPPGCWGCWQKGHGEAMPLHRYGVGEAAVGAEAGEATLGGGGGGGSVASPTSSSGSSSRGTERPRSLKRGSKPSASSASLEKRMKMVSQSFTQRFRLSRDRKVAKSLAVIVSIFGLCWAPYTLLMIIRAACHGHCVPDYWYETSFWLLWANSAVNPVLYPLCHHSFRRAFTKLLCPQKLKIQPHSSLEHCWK

CC1CC(C)(C)N=C(c2cccc(Cc3c[nH]cn3)c2)O1 (stereo unspecified) [2-[3-(1H-imidazol-4-ylmethyl)phenyl]-4,4,6-trimethyl-5,6-dihydro-4H-1,3-oxazine]
Ki [1]: 1 nM

C(#Cc1cccc(Cc2cnc[nH]2)c1)c1ccccc1 [4-{[3-(2-phenylethynyl)phenyl]methyl}-1H-imidazole]
Ki [2]: 2 nM

CC(C)(C)CC(=O)c1cccc(Cc2cnc[nH]2)c1 [1-[3-(1H-imidazol-4-ylmethyl)phenyl]-3,3-dimethylbutan-1-one]
Ki [3]: 6 nM

CCCC#Cc1cccc(Cc2c[nH]cn2)c1 [4-{[3-(pent-1-yn-1-yl)phenyl]methyl}-1H-imidazole]
Ki [2]: 3 nM

CC(C)(C)C#Cc1cccc(Cc2c[nH]cn2)c1 [4-{[3-(3,3-dimethylbut-1-yn-1-yl)phenyl]methyl}-1H-imidazole]
Ki [1]: 4 nM
Ki [3]: 6 nM
